Results: patent US20240327364A1, “THERAPEUTIC TARGETING OF GPR68 TO INDUCE FERROPTOSIS” (University Of Maryland, Baltimore, priority 2023, published 2024)
Marks after values point to notes of the source that are not given here.

Assays:
zebrafish embryo = test: Zebrafish embryo phenotype; format: in vivo; details: 10 uM
Protocol: A chemical screen for small molecules that perturb embryonic development (dorsoventral axis) in zebrafish was performed as previously described (see Chen et al., 2009; Hao et al., 2013; Williams et al., 2015; Yu et al., 2008)). Briefly, pairs of WT zebrafish were mated, and fertilized eggs were arrayed in 96-well microtiter plates (5 embryos/well) containing […] E3 water. At 4 hours post fertilization (pf), a small molecule library from Vanderbilt High Throughput Screening Facility was added to each well to a final concentration of 10 μM. Embryos were incubated at 28.5 C until 24 and 48 hours pf, when they were examined for gross morphologic changes indicative of reproducible embryonic defects (dorsalization of the embryonic axis). A total of 30,000 compounds were screened. To discover novel small molecule modulators of embryonic development an unbiased screen of ˜30,000 small molecules was conducted, in which the compounds were assayed for their ability to induce phenotypic changes in the morphology of zebrafish. Further information on these assays can be found in Hao et al., 2013 and Williams et al., 2015. […] This compound was identified based on the phenotype of aberrant pigmentation. Compare FIG. 2B and FIG. 2C, which show a dorsal view of a representative DMSO vehicle control-treated zebrafish embryo at 48 hours pf and a dorsal view of a representative OGM1 (10 uM)-treated zebrafish embryo at 48 hours pf. […] Since GPCRs represent >30% of targets for FDA-approved small molecules and are known to modulate cell migration, activity against 158 GPCRs was assessed based on their chemical structures. GPCRs (158) were tested for agonist and antagonist activity at 10 μM. […] Chemical segregation analysis of zebrafish phenotype was conducted to further identify the inhibitory activity responsible for the zebrafish phenotype. […] The identities of the R groups in Formula A are shown below in Table 5.

[1] = biological target: T1, ABL1(F317I)-phosphorylated (Homo sapiens, UniProt P00519, F317I); test: KinomeScan; format: binding; details: read-out: % Control
T1 construct: purchased DiscoveRx

ACVR2A = biological target: T2, ACVR2A (Homo sapiens, UniProt P27037); test: KinomeScan; format: binding; details: read-out: % Control
T2 construct: purchased DiscoveRx

BMPR2 = biological target: T3, BMPR2 (Homo sapiens, UniProt Q13873); test: KinomeScan; format: binding; details: read-out: % Control
T3 construct: purchased DiscoveRx (Fremont, CA)

CDK5 = biological target: T4, CDK5 (Homo sapiens, UniProt Q00535); test: KinomeScan; format: binding; details: read-out: % Control
T4 construct: purchased DiscoveRx (KinomeScan service)

CSNK1A1 = CSNK1A1 (Homo sapiens, UniProt P48729); test: KinomeScan; format: binding; details: read-out: % Control
DLK = biological target: T5, DLK (Homo sapiens, UniProt Q12852); test: KinomeScan; format: binding; details: read-out: % Control
T5 construct: purchased DiscoveRx (Fremont, CA), KinomeScan service

FLT3(D835Y) = biological target: T6, FLT3(D835Y) (Homo sapiens, UniProt P36888, D835Y); test: KinomeScan; format: binding; details: read-out: % Control
T6 construct: purchased DiscoveRx (Fremont, CA)

KIT(D816H) = biological target: T7, KIT(D816H) (Homo sapiens, UniProt P10721, D816H); test: KinomeScan; format: binding; details: read-out: % Control
T7 construct: purchased DiscoveRx

KIT(L576P) = biological target: T8, KIT(L576P) (Homo sapiens, UniProt P10721, L576P); test: KinomeScan; format: binding; details: read-out: % Control
T8 construct: purchased DiscoveRx

MEK2 = biological target: T9, MEK2 (Homo sapiens, UniProt P36507); test: KinomeScan; format: binding; details: read-out: % Control
T9 construct: purchased DiscoveRx (Fremont, CA)

MYLK2 = biological target: T10, MYLK2 (Homo sapiens, UniProt Q9H1R3); test: KinomeScan; format: binding; details: read-out: % Control
T10 construct: purchased DiscoveRx

p38-delta = biological target: T11, p38-delta (Homo sapiens, UniProt O15264); test: KinomeScan; format: binding; details: read-out: % Control
T11 construct: purchased DiscoveRx

PAK2 = biological target: T12, PAK2 (Homo sapiens, UniProt Q13177); test: KinomeScan; format: binding; details: read-out: % Control
T12 construct: purchased DiscoveRx

TLK1 = biological target: T13, TLK1 (Homo sapiens, UniProt Q9UKI8); test: KinomeScan; format: binding; details: read-out: % Control
T13 construct: purchased DiscoveRx (Fremont, CA)

ChemR23 = biological target: T14, ChemR23 (Homo sapiens, UniProt Q99788); test: GPCR Profiler; format: cell-based
T14 construct: host or cells: Chem-1 cells with Gα15

GPR14 = biological target: T15, GPR14 (Homo sapiens, UniProt Q9UKP6); test: GPCR Profiler; format: cell-based; details: 12.5 uM
T15 construct: host or cells: Chem-1 cells expressing Gα15

H1 = biological target: T16, H1 (Homo sapiens, UniProt P35367); test: GPCR Profiler; format: cell-based
T16 construct: host or cells: Chem-1 cells with promiscuous Gα15

Lpa1 = Lpa1 (Homo sapiens, UniProt Q92633); test: GPCR Profiler; format: cell-based
MC5 = biological target: T17, MC5 (Homo sapiens, UniProt P33032); test: GPCR Profiler; format: cell-based
T17 construct: host or cells: Chem-1 cells with promiscuous Gα15

MCHR2 = biological target: T18, MCHR2 (Homo sapiens, UniProt Q969V1); test: GPCR Profiler; format: cell-based
T18 construct: host or cells: Chem-1 cells expressing Gα15

S1P3 = biological target: T19, S1P3 (Homo sapiens, UniProt Q99500); test: GPCR Profiler; format: cell-based
T19 construct: host or cells: Chem-1 cells with Gα15

S1P5 = biological target: T20, S1P5 (Homo sapiens, UniProt Q9H228); test: GPCR Profiler; format: cell-based
T20 construct: host or cells: Chem-1 cells with Gα15

endothelial cell (EC) = test: Acidification-induced endothelial cell dysfunction; format: cell-based
Protocol: FIG. 34A through FIG. 34C: GPR68 plays a central role in acidification-induced endothelial cell (EC) dysfunction in vitro, and OGM2 abrogates EC dysfunction. […] These effects were abolished by OGM2 (OGM) at 3 uM and augmented by GPR68 positive allosteric modulator Ogerin (Og) at 2 uM. *P<0.05; Mann-Whitney test, n=5. FIG. 34C: Medium acidification reduced transendothelial resistance (TER), indicative of disruption of EC barrier function.

T17 sequence (P33032 whole entry): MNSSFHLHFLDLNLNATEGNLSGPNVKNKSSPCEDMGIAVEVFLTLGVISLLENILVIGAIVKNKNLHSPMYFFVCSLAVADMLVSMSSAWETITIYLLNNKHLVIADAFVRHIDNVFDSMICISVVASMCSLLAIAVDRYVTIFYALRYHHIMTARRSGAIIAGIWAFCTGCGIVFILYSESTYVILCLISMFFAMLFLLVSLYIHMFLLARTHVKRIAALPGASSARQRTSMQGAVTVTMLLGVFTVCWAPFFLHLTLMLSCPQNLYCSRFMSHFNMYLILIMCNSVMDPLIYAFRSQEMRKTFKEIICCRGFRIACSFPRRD
Chain of Lpa1 (Q92633 whole entry, species assumed): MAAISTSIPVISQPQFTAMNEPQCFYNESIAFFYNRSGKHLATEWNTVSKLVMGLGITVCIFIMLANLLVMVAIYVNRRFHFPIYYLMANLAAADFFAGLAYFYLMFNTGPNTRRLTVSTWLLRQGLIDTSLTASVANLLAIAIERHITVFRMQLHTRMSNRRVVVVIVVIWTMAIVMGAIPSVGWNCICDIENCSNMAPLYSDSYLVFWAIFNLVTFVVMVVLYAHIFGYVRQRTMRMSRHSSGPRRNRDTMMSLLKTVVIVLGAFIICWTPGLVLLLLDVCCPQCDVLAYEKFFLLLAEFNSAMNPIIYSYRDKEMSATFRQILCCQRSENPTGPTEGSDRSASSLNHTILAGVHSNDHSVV
T18 sequence (Q969V1 whole entry, species assumed): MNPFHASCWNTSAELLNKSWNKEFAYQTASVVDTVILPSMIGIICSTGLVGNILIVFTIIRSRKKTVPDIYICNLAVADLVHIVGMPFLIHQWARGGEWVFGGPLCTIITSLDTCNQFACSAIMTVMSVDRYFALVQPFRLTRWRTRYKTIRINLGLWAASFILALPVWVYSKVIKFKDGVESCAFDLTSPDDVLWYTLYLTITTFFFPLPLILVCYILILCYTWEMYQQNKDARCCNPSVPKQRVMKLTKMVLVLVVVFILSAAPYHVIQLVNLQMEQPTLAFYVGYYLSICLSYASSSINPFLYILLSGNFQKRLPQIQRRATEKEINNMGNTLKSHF
T14 sequence (Q99788 whole entry, species assumed): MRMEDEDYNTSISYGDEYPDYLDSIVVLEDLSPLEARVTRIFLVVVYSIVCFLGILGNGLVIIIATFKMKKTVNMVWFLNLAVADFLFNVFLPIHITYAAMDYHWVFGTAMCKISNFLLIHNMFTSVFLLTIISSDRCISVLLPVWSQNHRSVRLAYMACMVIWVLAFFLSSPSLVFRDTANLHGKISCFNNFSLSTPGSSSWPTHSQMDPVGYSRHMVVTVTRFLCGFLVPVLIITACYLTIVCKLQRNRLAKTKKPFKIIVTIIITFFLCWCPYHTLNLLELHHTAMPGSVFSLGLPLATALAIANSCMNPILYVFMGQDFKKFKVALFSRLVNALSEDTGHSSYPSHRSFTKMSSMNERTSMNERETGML
T16 sequence (P35367 whole entry): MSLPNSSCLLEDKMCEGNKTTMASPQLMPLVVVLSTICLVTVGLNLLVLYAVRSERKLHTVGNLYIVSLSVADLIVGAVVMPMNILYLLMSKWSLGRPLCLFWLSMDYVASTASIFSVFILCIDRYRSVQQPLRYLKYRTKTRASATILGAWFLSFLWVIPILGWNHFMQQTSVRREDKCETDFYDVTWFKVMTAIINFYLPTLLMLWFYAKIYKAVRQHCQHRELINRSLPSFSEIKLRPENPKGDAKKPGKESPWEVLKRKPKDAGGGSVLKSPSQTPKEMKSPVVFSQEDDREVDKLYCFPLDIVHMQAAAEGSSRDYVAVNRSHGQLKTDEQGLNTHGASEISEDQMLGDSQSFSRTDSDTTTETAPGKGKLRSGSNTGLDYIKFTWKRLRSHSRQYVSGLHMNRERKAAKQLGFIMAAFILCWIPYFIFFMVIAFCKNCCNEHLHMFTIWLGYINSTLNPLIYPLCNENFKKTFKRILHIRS
T20 sequence (Q9H228 whole entry, species assumed): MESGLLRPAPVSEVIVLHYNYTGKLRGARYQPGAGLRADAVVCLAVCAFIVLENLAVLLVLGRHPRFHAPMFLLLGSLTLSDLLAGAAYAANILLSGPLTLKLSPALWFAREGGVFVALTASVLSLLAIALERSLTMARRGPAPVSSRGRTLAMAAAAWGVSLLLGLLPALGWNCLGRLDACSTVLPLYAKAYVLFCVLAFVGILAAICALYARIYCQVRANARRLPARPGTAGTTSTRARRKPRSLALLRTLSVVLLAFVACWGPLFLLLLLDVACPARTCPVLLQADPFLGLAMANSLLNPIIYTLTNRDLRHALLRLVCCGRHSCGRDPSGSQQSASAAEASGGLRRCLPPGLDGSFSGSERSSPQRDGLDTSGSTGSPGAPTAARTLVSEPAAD
T19 sequence (Q99500 whole entry, species assumed): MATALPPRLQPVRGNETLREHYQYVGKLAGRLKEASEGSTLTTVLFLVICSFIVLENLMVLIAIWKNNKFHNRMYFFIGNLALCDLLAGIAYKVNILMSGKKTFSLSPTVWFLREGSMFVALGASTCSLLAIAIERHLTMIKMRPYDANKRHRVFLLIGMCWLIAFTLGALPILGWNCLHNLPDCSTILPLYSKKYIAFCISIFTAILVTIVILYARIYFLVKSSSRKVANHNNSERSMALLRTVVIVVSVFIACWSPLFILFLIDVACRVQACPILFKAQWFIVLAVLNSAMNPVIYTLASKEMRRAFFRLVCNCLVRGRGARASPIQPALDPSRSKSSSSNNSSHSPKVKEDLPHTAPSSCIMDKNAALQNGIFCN
T5 sequence (Q12852 whole entry): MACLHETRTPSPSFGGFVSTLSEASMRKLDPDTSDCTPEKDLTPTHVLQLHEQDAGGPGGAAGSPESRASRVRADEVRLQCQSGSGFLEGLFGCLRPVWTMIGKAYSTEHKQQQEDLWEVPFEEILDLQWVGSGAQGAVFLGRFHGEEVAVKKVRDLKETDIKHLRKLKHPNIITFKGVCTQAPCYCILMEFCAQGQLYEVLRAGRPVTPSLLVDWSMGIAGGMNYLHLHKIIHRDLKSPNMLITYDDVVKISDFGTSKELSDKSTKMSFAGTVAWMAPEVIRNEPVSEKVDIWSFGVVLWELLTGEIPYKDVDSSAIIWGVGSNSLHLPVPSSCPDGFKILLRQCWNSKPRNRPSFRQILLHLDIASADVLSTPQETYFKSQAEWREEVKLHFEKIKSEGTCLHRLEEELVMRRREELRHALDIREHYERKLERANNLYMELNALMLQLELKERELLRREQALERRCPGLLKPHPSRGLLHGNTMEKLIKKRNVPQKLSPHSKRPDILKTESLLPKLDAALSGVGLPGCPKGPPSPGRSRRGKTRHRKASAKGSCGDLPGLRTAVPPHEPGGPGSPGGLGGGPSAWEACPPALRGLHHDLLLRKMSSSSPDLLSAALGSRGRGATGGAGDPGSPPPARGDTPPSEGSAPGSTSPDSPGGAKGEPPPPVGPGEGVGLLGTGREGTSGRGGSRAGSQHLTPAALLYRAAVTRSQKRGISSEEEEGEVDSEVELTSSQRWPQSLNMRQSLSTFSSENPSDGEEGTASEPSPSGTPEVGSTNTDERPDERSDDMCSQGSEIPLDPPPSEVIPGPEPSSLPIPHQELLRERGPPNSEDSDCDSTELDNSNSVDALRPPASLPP
Chain of CSNK1A1 (P48729 whole entry): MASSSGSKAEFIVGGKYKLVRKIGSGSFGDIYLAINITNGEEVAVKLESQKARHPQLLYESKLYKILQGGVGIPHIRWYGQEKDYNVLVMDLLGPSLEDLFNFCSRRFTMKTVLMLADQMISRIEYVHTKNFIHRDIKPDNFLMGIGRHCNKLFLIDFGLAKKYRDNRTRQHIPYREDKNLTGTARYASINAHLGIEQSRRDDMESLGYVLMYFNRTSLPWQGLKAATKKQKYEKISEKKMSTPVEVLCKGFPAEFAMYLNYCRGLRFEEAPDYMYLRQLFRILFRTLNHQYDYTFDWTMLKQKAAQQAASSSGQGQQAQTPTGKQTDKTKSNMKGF
T11 sequence (O15264 whole entry): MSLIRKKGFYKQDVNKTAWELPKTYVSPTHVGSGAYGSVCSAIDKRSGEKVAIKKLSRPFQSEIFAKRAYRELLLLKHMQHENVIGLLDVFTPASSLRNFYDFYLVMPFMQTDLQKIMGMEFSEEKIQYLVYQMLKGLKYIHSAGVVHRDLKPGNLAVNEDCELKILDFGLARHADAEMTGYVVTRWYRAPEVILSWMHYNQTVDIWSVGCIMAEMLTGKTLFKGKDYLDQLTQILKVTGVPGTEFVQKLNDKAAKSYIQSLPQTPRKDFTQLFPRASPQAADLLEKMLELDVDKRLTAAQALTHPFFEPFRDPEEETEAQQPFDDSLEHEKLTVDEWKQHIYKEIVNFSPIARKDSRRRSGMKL
T10 sequence (Q9H1R3 whole entry): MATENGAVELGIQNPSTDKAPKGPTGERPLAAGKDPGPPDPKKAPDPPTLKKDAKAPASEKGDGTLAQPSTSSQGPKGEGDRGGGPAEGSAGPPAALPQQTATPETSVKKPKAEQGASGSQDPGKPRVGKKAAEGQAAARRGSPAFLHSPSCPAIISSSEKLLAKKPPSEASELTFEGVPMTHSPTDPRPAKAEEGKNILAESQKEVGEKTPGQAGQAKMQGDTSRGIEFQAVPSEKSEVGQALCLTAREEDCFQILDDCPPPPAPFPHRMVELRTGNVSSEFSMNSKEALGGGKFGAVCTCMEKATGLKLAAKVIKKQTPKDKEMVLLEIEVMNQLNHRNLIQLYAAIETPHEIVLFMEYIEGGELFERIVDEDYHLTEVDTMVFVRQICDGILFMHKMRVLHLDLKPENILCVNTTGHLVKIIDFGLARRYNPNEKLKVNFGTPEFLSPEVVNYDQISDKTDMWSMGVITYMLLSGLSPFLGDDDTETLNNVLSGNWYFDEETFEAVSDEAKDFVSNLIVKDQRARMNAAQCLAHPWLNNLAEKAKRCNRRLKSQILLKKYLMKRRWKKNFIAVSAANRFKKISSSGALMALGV

`CCc1ccc2c(c1)C1(NN=C(c3cccc4ccccc34)S1)C(=O)N2` (centres unmarked) [OGM1, 5-ethyl-5′-naphthalen-1-ylspiro[1H-indole-3,2′-3H-1,3,4-thiadiazole]-2-one] was tested, and the phenotypes induced (zebrafish embryo) was “reproducibly induced ventral curvature, wavy notochord, shortened body axis, craniofacial defects, and loss of retinal iridophores”, the remaining binding at 10 µM [1] was 82% and the remaining binding at 10 µM (ACVR2A) was 100%. For the same molecule, the remaining binding at 10 µM (BMPR2) was 92%, the remaining binding at 10 µM (CDK5) was 100% and the remaining binding at 10 µM (CSNK1A1) was 75%. It also gave a remaining binding at 10 µM (DLK) of 40%, a remaining binding at 10 µM (FLT3(D835Y)) of 100% and a remaining binding at 10 µM (KIT(D816H)) of 97%. The remaining binding at 10 µM (KIT(L576P)) was 82%, the remaining binding at 10 µM (MEK2) was 94% and the remaining binding at 10 µM (MYLK2) was 100%. It also gave a remaining binding at 10 µM (p38-delta) of 81%, a remaining binding at 10 µM (PAK2) of 72% and a remaining binding at 10 µM (TLK1) of 53%. The Antagonism (ChemR23; 10 uM) was 0.1, the Agonism (ChemR23; 12.5 uM) was 0 and the Agonism (GPR14) was 16.8*. For the same molecule, the Antagonism (H1; 10 uM) was −17.2, the Agonism (H1; 12.5 uM) was 2.1 and the Antagonism (Lpa1; 10 uM) was 89.5. For the same molecule, the Agonism (Lpa1; 12.5 uM) was 0.5, the Antagonism (MC5; 10 uM) was 13.9 and the Agonism (MC5; 12.5 uM) was 0.9. The Antagonism (MCHR2; 10 uM) was −8.2, the Agonism (MCHR2; 12.5 uM) was 0.3 and the Antagonism (S1P3; 10 uM) was −3.7. It also gave an Agonism (S1P3; 12.5 uM) of 0.2, an Antagonism (S1P5; 10 uM) of 0.9 and an Agonism (S1P5; 12.5 uM) of 1.8.
For `CCc1ccc2c(c1)C1(NN=C(c3ccccc3)S1)C(=O)N2` (centres unmarked) [OGM2], the “TER decline caused by low pH (6.5)” value (endothelial cell (EC); GPR4i 5 uM) was “abolished TER decline” and the “acidic media (pH 6.5)-induced TNFα, VCAM1 and ICAM1 expression” value (endothelial cell (EC); OGM2 3 uM, Ogerin 2 uM) was “abolished”.
